Laboratory results as given in patent US5688640A, “Methods of screening of effectors of endothelin converting enzyme-1” (Board of Regents, The University of Texas System, priority 1994, dated 1997).
Entries after “also recorded” stand apart in the source; their conditions may differ. Ends that are not written are not given here.

Tests used:
ECE-1 [1] = molecular target: T1, ECE-1 (Bos taurus, UniProt P42891); assay: ECE activity in solubilized CHO/ECE-1 membranes/homogenates, protease inhibitors (generation of mature ET-1 from big ET-1 by EIA); assay type: biochemical, bovine; details: for inhibition of ECE activity (in words): CHO/ECE-1 membranes
T1 construct: The entire coding regions from bovine ECE-1; made in house
T1 sequence (P42891 with tags, fused parts or gaps A87G/A695G limits assumed): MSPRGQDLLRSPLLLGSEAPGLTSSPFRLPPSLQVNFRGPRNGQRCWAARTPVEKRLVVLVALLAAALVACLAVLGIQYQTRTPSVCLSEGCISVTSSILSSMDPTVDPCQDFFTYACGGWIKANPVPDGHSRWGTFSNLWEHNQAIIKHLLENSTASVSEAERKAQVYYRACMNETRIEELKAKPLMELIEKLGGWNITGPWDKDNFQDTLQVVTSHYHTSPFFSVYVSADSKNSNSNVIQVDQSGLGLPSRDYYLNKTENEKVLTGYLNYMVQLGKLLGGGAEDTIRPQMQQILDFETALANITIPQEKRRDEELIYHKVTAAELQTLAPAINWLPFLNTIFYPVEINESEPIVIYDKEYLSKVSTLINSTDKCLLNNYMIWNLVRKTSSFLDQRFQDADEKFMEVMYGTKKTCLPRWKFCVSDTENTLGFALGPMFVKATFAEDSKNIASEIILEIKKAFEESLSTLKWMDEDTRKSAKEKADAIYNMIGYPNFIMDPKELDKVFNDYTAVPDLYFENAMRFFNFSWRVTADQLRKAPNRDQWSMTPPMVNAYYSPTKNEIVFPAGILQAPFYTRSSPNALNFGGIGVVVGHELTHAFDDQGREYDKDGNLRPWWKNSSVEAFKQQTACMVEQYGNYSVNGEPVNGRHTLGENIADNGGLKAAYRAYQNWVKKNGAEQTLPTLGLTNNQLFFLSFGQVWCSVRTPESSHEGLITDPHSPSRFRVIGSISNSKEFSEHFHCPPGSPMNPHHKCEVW
Method: Solubilized membranes were prepared from this homogenate as described under Purification of ECE, except that buffer B was used instead of buffer A. For protease inhibitor studies, membranes were prepared by using buffer B without pepstain A, PMSF and pCMS.

ECE [2] = molecular target: T2, ECE (Bos taurus, UniProt Q28010); assay: ECE activity in bovine adrenal cortex membrane fractions; assay type: biochemical
T2 construct: full length 758 aa
T2 sequence (Q28010 1-758): T1 sequence (P42891 with tags, fused parts or gaps A87G/A695G limits assumed)
Method: Bovine adrenal glands were obtained at a local slaughter house, immediately immersed in ice-cold Dulbecco's phosphate buffered saline (PBS), and brought to the laboratory within 2 hours. All subsequent procedures were performed at 4° C. Adrenal cortices were carefully separated from the medulla and connective tissue. […] The homogenate was centrifuged at 1,000×g for 10 min, and the resulting supernatant was further centrifuged at 100,000×g for 60 min. The pellet was resuspended in 5×volume of buffer A by a Teflon homogenizer, and centrifuged again at 100,000×g for 60 min. The crude membrane pellet was solubilized at 10-20 mg protein/ml in buffer A containing 2.5% C12 E10 for 30 min. The mixture was centrifuged at 100,000×g for 60 min, and the supernatant was saved as solubilized membrane.

human ETA receptor = molecular target: T3, human ETA receptor (Homo sapiens, UniProt P25101); assay: Ca2+ transient bioassay in CHO cells expressing human ETA receptors; assay type: cell-based
T3 sequence (P25101 21-427): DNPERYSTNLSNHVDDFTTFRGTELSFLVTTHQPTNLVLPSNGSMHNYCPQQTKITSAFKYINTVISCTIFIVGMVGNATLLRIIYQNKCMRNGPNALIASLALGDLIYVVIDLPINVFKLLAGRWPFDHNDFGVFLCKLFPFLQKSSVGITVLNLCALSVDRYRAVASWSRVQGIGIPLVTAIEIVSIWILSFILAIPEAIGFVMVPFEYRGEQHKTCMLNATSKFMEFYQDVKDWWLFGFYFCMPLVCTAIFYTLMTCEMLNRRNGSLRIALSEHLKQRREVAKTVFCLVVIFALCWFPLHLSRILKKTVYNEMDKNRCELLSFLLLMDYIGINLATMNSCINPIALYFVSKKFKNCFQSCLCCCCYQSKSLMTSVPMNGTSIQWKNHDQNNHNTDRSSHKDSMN
Method: Bioassay of culture supernatants from preproET-1-transfected CHO/ECE-1 cells using CHO cells expressing human ETA receptors as reporter cells. Sup-A and Sup-B represents the serum-free medium conditioned for 12 hours with CHO/ECE-1 and CHO cells each transiently transfected with the preproET-1 construct, respectively.
For the Ca^2+ transient bioassay (see below), Phenol Red-free CHO-SFM medium (Gibco/BRL) without serum was used in order to avoid artefacts induced by serum and the dye.
A CHO stable transfectant clone expressing human ETA receptors was loaded with fura-2/AM, and ET-1 induced intracellular calcium transients were monitored by a Jasco CAM-110 Intracellular Ion Analyzer as previously described (Sakamoto et al., 1993).
The functional authenticity of the immunoreactive mature peptide produced from the double-transfected cells was examined with a bioassay system that uses another line of CHO cells expressing human ETA receptors as reporter cells. A stable transfectant cell line was obtained by transfecting CHO cells with a human ETA receptor construct (Sakamoto et al., 1993). […] Next the supernatants from the preproET-1-transfected CHO/ECE-1 cells were added, so that the final concentration of ET-1 as measured by EIA was ≈20 pM.

ECE-1 [3] = molecular target: T1, ECE-1; assay: Secretion of big and mature ET-1 by preproET-1-transfected CHO/ECE-1 cells (conversion of endogenous big ET-1); assay type: cell-based, bovine
Method: (§2) Transient transfection of the preproET-1 cDNA was performed by the DEAE-dextran method as described (Sakurai et al., 1990). Twelve hours after transfection, cells were refed with fresh medium with or without ECE inhibitors. The medium was conditioned for an additional 12 hours and directly subjected to EIA for mature and big ET-1 (Suzuki et al., 1990; Suzuki et al., 1989). For the Ca^2+ transient bioassay (see below), Phenol Red-free CHO-SFM medium (Gibco/BRL) without serum was used in order to avoid artefacts induced by serum and the dye.
To examine whether the expressed ECE-1 can convert big ET-1 in intact cells, paired cultures of CHO/ECE-1 cells and untransfected CHO cells were transiently transfected with the preproET-1 construct. After the transient transfection, the amounts of mature and big ET-1 secreted into the medium were measured by EIA. […] The functional authenticity of the immunoreactive mature peptide produced from the double-transfected cells was examined with a bioassay system that uses another line of CHO cells expressing human ETA receptors as reporter cells. […] The cells were loaded with the Ca^2+ indicator Fura-2/AM, and directly challenged with serum-free, Phenol Red-free culture supernatants from the aforementioned double-transfection protocols. […] Next the supernatants from the preproET-1-transfected CHO/ECE-1 cells were added, so that the final concentration of ET-1 as measured by EIA was ≈20 pM.

ECE-1 [4] = molecular target: T1, ECE-1; assay: Production of mature ET-1 by 1:1 co-cultures of CHO/ECE-1 and CHO/preproET-1 cells (conversion of exogenous big ET-1); assay type: cell-based, bovine
Method: as §2
Next, the ability of CHO/ECE-1 cells to convert exogenously supplied big ET-1 was examined by co-culturing the cells with a separate CHO cell line that was stably transfected with the preproET-1 construct (CHO/preproET-1 cells).

CHO/ECE-1 cells = assay: Concentration of intact compound in culture medium by HPLC before and after culture with CHO/ECE-1 cells
ECE [5] = details: cited from earlier work
endothelial ECE = details: cited from earlier work; for inhibition of endothelial ECE activity (in words): membranes and purified preparations
[6] = test system: cultured endothelial cells; details: cited from earlier work
ECE-1 [7] = molecular target: T1, ECE-1; assay: Reconstitution of ECE-1 activity by metal ions after EDTA stripping; assay type: biochemical, bovine; details: ZnCl2 300 μM after 30 μM EDTA
Method: FIG. 2D. […] After incubating on ice for 15 min, the designated concentrations of metal ions were added as chloride salt and ECE activity was measured.
(§1) Reaction mixtures for ECE assay (50 μl) contained 0.1M sodium phosphate buffer (pH 6.8), 0.5M NaCl, 0.1 μM human big ET-1(1-38) and enzyme fraction. For some studies, the reactions were preincubated at 37° C. with various protease inhibitors for 15 minutes prior to the addition of big ET-1. The reactions were incubated at 37° C. for 30 min in siliconized 0.5-ml microcentrifuge tubes. […] Duplicate assay wells were used for each enzyme reaction. Protein concentration was determined by the Bradford method (Bio-Rad) using IgG as standard.
Approximately 3,000-cm^2 confluent monolayers of cells (≈10^8 cells) were rinsed twice with ice-cold PBS. Cells were scraped off by a rubber policeman in ice-cold PBS, and collected by centrifugation. All subsequent procedures were performed at 4° C. Cells were resuspended in 10×volume of buffer B (20 mM Tris-HCl (pH 7.4)/20 μM pepstatin A/1 mM PMSF/1 MM pCMS/250 mM sucrose), and homogenized by a 30-ml Teflon homogenizer with the piston rotating at 300 r.p.m. […]

[8] = ET-1(1-20) and ET-1(1-22) relative to authentic ET-1(1-21); cited from earlier work
ECE-1 [9] = molecular target: T1, ECE-1; assay: Substrate conversion / isopeptide selectivity of cloned ECE-1 (CHO/ECE-1 membranes or homogenate, EIA); assay type: biochemical, bovine; details: in vitro; big endothelin isopeptides 0.1 μM
Method: FIG. 2A. Functional expression of ECE-1 cDNA in transfected CHO cells.
FIG. 2E. Isopeptide selectivity of ECE-1 expressed in solubilized CHO/ECE-1 membranes. Designated synthetic big endothelin isopeptides (0.1 μM) were used as substrates and generation of corresponding mature peptides were measured by EIA.
as §1

ECE-1 [10] = molecular target: T1, ECE-1; assay: HPLC analysis of big ET-1 conversion by partially purified ECE-1 from CHO/ECE-1 cells; assay type: biochemical, bovine; details: 5 μM big ET-1, 24 hr
Method: FIG. 3. HPLC analysis of big ET-1 conversion by partially purified ECE-1 from CHO/ECE-1 cells. ECE-1 was partially purified from solubilized CHO/ECE-1 membranes by WGA-agarose chromatography as described in Example 1. The enzyme fraction (800 μg protein) was incubated at 37° C. with 1 μM big ET-1 in 800 μl of ECE assay buffer. […] The reaction mixture was separated by HPLC as described in Example 1. Arrows indicate elution times of the authentic peptides.
Samples were injected into a C18 reverse-phase HPLC column (Ultrasphere ODS 5 μm, 4.6×250 mm; Beckman), which was eqhilibrated with 18% (v/v) acetonitrile/0.1% (v/v) TFA and maintained at 40° C. The column was eluted at a flow rate of 1 ml/min with an 18-30% linear gradient of acetonitrile in 0.1% TFA over 12 minutes followed by a 30-36% linear gradient over an additional 12 minutes. Peptides were detected by UV absorbance at 210 nm. […] To confirm chemical authenticity of immunoreactivity in culture supernatants, the conditioned medium was pre-extracted with a Sep-Pak C18 cartridge as described (Suzuki et al., 1989) before HPLC. HPLC fractions (0.5 ml) were collected and evaporated to dryness under vacuum. […] No other immunoreactive peaks were detected. […]

## c1cnc2c(c1)ccc1cccnc12 [1,10-phenanthroline]
ECE-1 [1]; in vitro
  inhibition of ECE activity (in words): inhibited

## C[C@H](CS)C(=O)N1CCC[C@H]1C(=O)O [Captopril]
ECE-1 [1]; in vitro
  inhibition of ECE activity (in words): not inhibited; also recorded: not by thiorphan or captopril

## O=C(O)CN(CCN(CC(=O)O)CC(=O)O)CC(=O)O [EDTA]
ECE [2]; read-out: inhibition of ECE activity
  inhibition at 1000 µM: > 90%

## CC(C)C[C@H](NC(=O)N1CCCCCC1)C(=O)N[C@H](Cc1cn(C)c2ccccc12)C(=O)N[C@H](Cc1ccccn1)C(=O)O [FR139317]
Human ETA receptor; supernatant with ≈20 pM ET-1
  inhibition of Ca2+ response to CHO/ECE-1 supernatant (in words): completely abolished

## COc1c2c(c(O)c3c1C(O)Cc1cc(CC(C)O)c(C(=O)O)c(O)c1-3)C(=O)c1cccc(O)c1C2=O (stereo not shown) [FR901533, 1,6,9,14-tetrahydroxy-3-(2-hydroxypropyl)-7-methoxy-8,13-dioxo-5,6,8,13-tetrahydro-benzo[a]naphthacene-2-carboxylate Na]
ECE-1 [1]; in vitro
  inhibition of ECE activity (in words): efficiently inhibited
ECE-1 [1]; in vitro, solubilized CHO/ECE-1 membranes, read-out: apparent IC50 for inhibition of ECE activity
  IC50: ~1500 nM
ECE-1 [3]; inhibitor added to medium
  inhibition of production/secretion of mature ET-1 by live double-transfected cells (in words): did not inhibit
ECE-1 [4]
  IC50: ~1000 nM
ECE-1 [4]; added to medium at low μM concentrations
  inhibition of conversion of exogenous big ET-1 (in words): efficiently inhibited
CHO/ECE-1 cells; 100 μM nominal, after 72-hr culture with CHO/ECE-1 cells
  measured concentration in medium after culture: 94 µM
CHO/ECE-1 cells; 100 μM nominal, before 72-hr culture with CHO/ECE-1 cells
  measured concentration in medium before culture: 93 µM
CHO/ECE-1 cells; 72-hr culture with CHO/ECE-1 cells
  degradation by the cells (in words): not degraded

## CC(C)C[C@H](NP(=O)(O)O[C@@H]1O[C@@H](C)[C@H](O)[C@@H](O)[C@H]1O)C(=O)N[C@@H](Cc1c[nH]c2ccccc12)C(=O)O [Phosphoramidon]
ECE [5]; whole animals and isolated perfused organs, most assay systems
  inhibition of conversion of exogenous big ET-1 (in words): consistently inhibits the conversion
ECE [2]; 100 μM, bovine adrenal cortex membranes
  inhibition at 100 µM: > 90%
Endothelial ECE
  inhibition of endothelial ECE activity (in words): low μM range
[6]; added to the medium
  effect on production of mature ET-1 (in words): decreases the production of mature ET-1 in a dose dependent manner

## O=C(O)CNC(=O)C(CS)Cc1ccccc1 (stereo not shown) [Thiorphan]
ECE-1 [1]; in vitro
  inhibition of ECE activity (in words): not inhibited; also recorded: not by thiorphan or captopril
Endothelial ECE
  inhibition of endothelial ECE activity (in words): not by thiorphan

## [Cl-].[Cl-].[Zn+2] [ZnCl2]
ECE-1 [7]
  reconstituted ECE activity, of the original levels: up to 110%

## O=S(=O)(O)c1cc[c]([Hg][Cl])cc1 [pCMS, p-chloro-mercuriphenylsulphonic acid]
ECE-1 [1]; inhibitor 100 μM, means of duplicate assays from two independent experiments
  ECE activity (% of ECE activity without inhibitors): 298%

## ET-1(1-20): ET-1(1-20) (CSCSSLMDKECVYFCHLDII; ends and bridges not checked; cysteine pairing not given here; UniProt P05305 53-72, looked up, fragment)
[8]
  vasoconstrictor/biological activity (in words): at least three orders of magnitude weaker

## ET-1(1-22): ET-1(1-22) (CSCSSLMDKECVYFCHLDIIWV; ends and bridges not checked; cysteine pairing not given here; UniProt P05305 53-74, looked up, fragment)
[8]
  vasoconstrictor/biological activity (in words): at least three orders of magnitude weaker

## big ET-1(1-31): C-terminally truncated substrate (CSCSSLMDKECVYFCHLDIIWVNTPEHVVPY; ends and bridges not checked; cysteine pairing not given here; UniProt P05305 53-83, looked up, fragment)
ECE-1 [9]
  processing as ECE-1 substrate (in words): did not generate detectable levels of mature peptide; also recorded: cannot be an ECE-1 substrate

## big ET-1: human big ET-1(1-38) obtained from American Peptides (CSCSSLMDKECVYFCHLDIIWVNTPEHVVPYGLGSPRS; ends and bridges not checked; cysteine pairing not given here; UniProt P05305 53-90, looked up)
ECE-1 [3]; CHO/ECE-1 cells, depending on experimental conditions
  conversion of endogenous big ET-1 (intracellular): 50-90%
ECE-1 [3]; preproET-1-transfected CHO/ECE-1 cells
  concentration secreted in culture supernatant: 46 pM
ECE-1 [3]; preproET-1-transfected CHO/ECE-1 cells, no inhibitor
  conversion of endogenous big ET-1 to mature peptide, typical culture: 84%
ECE-1 [4]; co-culture with CHO/ECE-1 cells
  conversion of exogenous big ET-1: 5-10%
ECE [5]; isolated perfused tissues and whole animal preparations
  phosphoramidon-sensitive conversion of exogenously administered big ET-1 (in words): only up to a few %
Human ETA receptor; 20 pM mature ET-1 (final), 1,000-fold higher concentration of big ET-1, supernatant at ≈20 pM ET-1
  intracellular Ca2+ response of ETA reporter cells (in words): did not respond
ECE-1 [9]
  processing as ECE-1 substrate (in words): more efficiently than big ET-2 and big ET-3
ECE-1 [10]
  conversion of big ET-1 into two peptide products: > 90%
  product yield judged by areas under HPLC peaks: > 80%
Endothelial ECE; crude membranes and purified enzyme preparations, read-out: apparent Km of endothelial ECE
  Km: 1 to 10 µM
[6]; cultured endothelial cells
  conversion of endogenously produced big ET-1: 60-80%
